In assay [1] the test system is HCV replicon 2B. Briefly: Cell-based HCV replicon assay, 2B. Particulars: replicon cells, 3 days, replicon RNA by real-time PCR. As to the method:
(§1) To measure cell-based anti-HCV activity of selected compounds of the present invention two complimentary assays were employed. In the first assay, replicon cells were seeded at 2000 cells/well in 384-well flat bottom tissue culture treated clear bottom plate (Corning 3707) in the presence of the test compound. Various concentrations of test compound, typically in 10 serial dilutions, were added to the assay mixture, with the starting concentration ranging from 333.3 nM to 1.667 nM. The final concentration of DMSO was 0.5%. Fetal bovine serum was 5%, in the assay media. Cells were harvested on day 3 by removing media and washing the cells with a suitable wash buffer. The cells were lysed with the addition of 1× Qiagen lysis buffer (Cat #1062731). The replicon RNA level was measured using real time PCR (TaqMan® EZ RT-PCR, Applied Biosystems 403028) with the following primers and probes: […]
(§2) Cyclophilin RNA was used as endogenous control and was amplified in the same reaction as NS5B (multiplex PCR). The real-time RT-PCR reactions were run on ABI PRISM 7900HT Sequence Detection System using the following program: 50° C. for 2 minutes, 60° C. for 30 minutes, 95° C. for 5 minutes, 40 cycles of 94° C. for 20 sec, 55° C. for 1 minute.
(§3) The amount of HCV replicon RNA per cell is quantified using a linear regression curve for a known nanogram (ng) amount of HCV replicon total RNA. This is established by plotting the Cycle Threshold values (Ct) from the Neo probe and primer set versus the log (ng) for each HCV replicon total RNA standard. The amount of HCV RNA for each replicon sample is calculated by taking the sample's Ct value, minus the line intercept, divided by the slope of the line. Similarly, the amount of Cyclophilin mRNA per cell is also quantified using a linear regression curve for a known nanogram (ng) amount of HCV replicon total RNA. Again, this is established by plotting the Cycle Threshold values (Ct) from the Cyclophilin probe and primer set versus the log (ng) for each HCV replicon total RNA standard.
(§4) In the alternate assay, 1000 cells were seeded per well in a 384-well collagen coated black plate from Greiner bio-one (Cat #781946) in 5% FBS. Inhibitors of this invention were added at 24 hours post-seeding, and the plates were incubated for 3 days. Cells were subsequently lysed with Qiagen lysis buffer (Cat #1062731) to extract the RNA. HCV replicon RNA level was measured by real-time PCR using the RNA-to-CT kit from Applied Biosystem (Cat #4392656) and genotype-specific primers and probes. The amplicon was located within NS5B. The sequence of the PCR primers were as follows: 5B.2F, ATGGACAGGCGCCCTGA (SEQ. ID NO. 7); 5B.2R, […] (SEQ. ID NO. 8); the probe sequence was FAM-labeled CACGCCATGCGCTGCGG (SEQ. ID NO. 9). To detect genotype 1A the primer 1A F, TGCGGAACCGGTGAGTACA (SEQ ID NO:10) and 1A R, […] (SEQ ID NO: 11) were used; the probe sequence was FAM-[…] (SEQ ID NO:12).
(§5) The real-time RT-PCR reactions were run on ABI PRISM 7900HT or Viia7 Sequence Detection System using the following program: 48° C. for 30 minutes, 95° C. for 10 minutes, 40 cycles of 95° C. for 15 sec, 60° C. for 1 minute. The 50% effective concentration (EC50) was the drug concentration necessary to achieve an increase in the cycle threshold (CT) of 1 over the projected baseline CT. The EC90 was the drug concentration necessary to achieve an increase in CT of 3.2 over the projected baseline CT.

Assay [2] concerns HCV replicon 1B. Nature of the assay: Cell-based HCV replicon assay, 1B. Particulars: replicon cells, 3 days, replicon RNA by real-time PCR. The method, then:
as §1, §2, §3, §4, §5
In general terms: A replicon is a self-replicating genome or part of one, used to study replication in cells.

The test system of assay [3] is HCV replicon genotype 1A. Nature of the assay: Cell-based HCV replicon assay, 1A. Particulars: replicon cells, 3 days, replicon RNA by real-time PCR. The method, then:
as §1, §2, §3, §4, §5

Assay [4] relates to HCV replicon 1A Y93H. Nature of the assay: Cell-based HCV replicon assay, 1A Y93H. The method, then: as §1, §2, §3, §4, §5
The test system of assay [5] is HCV replicon 3A. Nature of the assay: Cell-based HCV replicon assay, 3A. Particulars: replicon cells, 3 days, replicon RNA by real-time PCR. As to the method:
as §1, §2, §3, §4, §5

The mark [6] stands for this setting: read-out: 1A Y93H IC50, replicon cells, 3 days, replicon RNA by real-time PCR.
The mark [7] stands for this setting: Hepatitis C virus, 72 h, read-out: 1A Y93H IC50 (nM), replicon cells, 3 days, replicon RNA by real-time PCR.

The structures appear in SMILES notation. Like-named read-outs stand apart in the source and are kept apart here.

For orientation: IC50 means the concentration that gives 50% inhibition. `COC(=O)N[C@H](C(=O)N1CCC[C@H]1c1ncc(-c2ccc3c(c2)OC(c2ccccc2)C2=C3COc3cc(-c4cnc([C@@H]5CCCN5C(=O)[C@@H](NC(=O)OC)C(C)C)[nH]4)ccc32)[nH]1)C(C)C` (single isomer, unassigned) [Compound 8]: the IC50 in assay [1] worked out at 6.65 nM; in assay [2] it was 0.021 nM; in assay [3] it was 0.0337 nM; in assay [4] (setting [6]), 20.4 nM; in assay [5], 0.969 nM.

In the case of `COC(=O)N[C@H](C(=O)N1CCC[C@H]1c1ncc(-c2ccc3c(c2)OC(c2ccccc2)C2=C3COc3cc(-c4cnc([C@@H]5CCCN5C(=O)[C@@H](NC(=O)OC)C(C)C)[nH]4)ccc32)[nH]1)C(C)C` (single isomer, unassigned) [Compound 9], the IC50 amounted to 1.9 nM in assay [1]; 0.0073 nM in assay [2]; 0.0099 nM in assay [3]; 3.94 nM in assay [4] (setting [6]); 0.172 nM in assay [5].

For the compound `COC(=O)N[C@H](C(=O)N1CCC[C@H]1c1ncc(-c2ccc3c(c2)OC(c2cccc(OC)c2)C2=C3COc3cc(-c4cnc([C@@H]5CCCN5C(=O)[C@@H](NC(=O)OC)C(C)C)[nH]4)ccc32)[nH]1)C(C)C` (single isomer, unassigned) [Compound 10], the IC50 in assay [1] (Hepatitis C virus, 72 h) stood at 2.72 nM; in assay [3], 0.0035 nM; in assay [4] (setting [7]), 2.94 nM; in assay [5], 0.233 nM.

With `COC(=O)N[C@H](C(=O)N1CCC[C@H]1c1ncc(-c2ccc3c(c2)OC(c2cccc(OC)c2)C2=C3COc3cc(-c4cnc([C@@H]5CCCN5C(=O)[C@@H](NC(=O)OC)C(C)C)[nH]4)ccc32)[nH]1)C(C)C` (single isomer, unassigned) [Compound 11], the IC50 in assay [2] (Hepatitis C virus, 72 h) was 0.006 nM; in assay [3], 0.01 nM.

As for `COC(=O)N[C@H](C(=O)N1CCC[C@H]1c1ncc(-c2ccc3c(c2)OC(c2cccc(OC)c2)C2=C3COc3cc(-c4cnc([C@@H]5CCCN5C(=O)[C@@H](NC(=O)OC)C(C)C)[nH]4)ccc32)[nH]1)C(C)C` (single isomer, unassigned) [Compound 12], the figures for the IC50 in assay [3], in assay [4] (setting [6]) and in assay [5] were 0.0251 nM, 2.44 nM and 1.82 nM, respectively.

With `COC(=O)N[C@H](C(=O)N1CCC[C@H]1c1ncc(-c2ccc3c(c2)OC(C)C2=C3COc3cc(-c4cnc([C@@H]5CCCN5C(=O)[C@@H](NC(=O)OC)C(C)C)[nH]4)ccc32)[nH]1)C(C)C` (single isomer, unassigned) [Compound 13], the IC50 worked out at 12 nM in assay [1]; 0.0344 nM in assay [3]; 23.8 nM in assay [4] (setting [6]); 1 nM in assay [5] (Hepatitis C virus, 72 h).

With `COC(=O)N[C@H](C(=O)N1CCC[C@H]1c1ncc(-c2ccc3c(c2)OC(C)C2=C3COc3cc(-c4cnc([C@@H]5CCCN5C(=O)[C@@H](NC(=O)OC)C(C)C)[nH]4)ccc32)[nH]1)C(C)C` (single isomer, unassigned) [Compound 14], the IC50 turned out to be 24.5 nM in assay [1], 0.0122 nM in assay [3] and 31.8 nM in assay [4] (setting [6]).

Take `COC(=O)N[C@H](C(=O)N1CCC[C@H]1c1ncc(-c2ccc3c(c2)OC(C)C2=C3COc3cc(-c4cnc([C@@H]5CCCN5C(=O)[C@@H](NC(=O)OC)C(C)C)[nH]4)ccc32)[nH]1)C(C)C` (single isomer, unassigned) [Compound 15]: the IC50 was 15.3 nM in assay [1], 0.0229 nM in assay [3] and 127 nM in assay [4] (setting [6]).

On to `COC(=O)N[C@H](C(=O)N1CCC[C@H]1c1ncc(-c2ccc3c(c2)OC(C2CC2)C2=C3COc3cc(-c4cnc([C@@H]5CCCN5C(=O)[C@@H](NC(=O)OC)C(C)C)[nH]4)ccc32)[nH]1)C(C)C` (single isomer, unassigned) [Compound 16], for which the IC50 in assay [1] (Hepatitis C virus, 72 h) amounted to 0.621 nM; in assay [3] (Hepatitis C virus, 72 h) it was 0.0118 nM; in assay [4] (setting [6]) it was 6.31 nM; in assay [5] (Hepatitis C virus, 72 h), 3.74 nM.

For the compound `COC(=O)N[C@H](C(=O)N1CCC[C@H]1c1ncc(-c2ccc3c(c2)OC(C2CC2)C2=C3COc3cc(-c4cnc([C@@H]5CCCN5C(=O)[C@@H](NC(=O)OC)C(C)C)[nH]4)ccc32)[nH]1)C(C)C` (single isomer, unassigned) [Compound 17], the IC50 is 0.0115 nM in assay [3] and 57.9 nM in assay [4] (setting [6]).

Consider `COC(=O)N[C@H](C(=O)N1CCC[C@H]1c1ncc(-c2ccc3c(c2)OC(C2CC2)C2=C3COc3cc(-c4cnc([C@@H]5CCCN5C(=O)[C@@H](NC(=O)OC)C(C)C)[nH]4)ccc32)[nH]1)C(C)C` (single isomer, unassigned) [Compound 18], for which the IC50 in assay [3] is 0.0081 nM; in assay [4] (setting [6]), 14.3 nM.

As to `COC(=O)N[C@H](C(=O)N1C[C@H](F)C[C@H]1c1ncc(-c2ccc3c(c2)OC(C2CC2)C2=C3COc3cc(-c4cnc([C@@H]5C[C@@H](F)CN5C(=O)[C@@H](NC(=O)OC)C(C)C)[nH]4)ccc32)[nH]1)C(C)C` (single isomer, unassigned) [Compound 19], the IC50 in assay [3] was determined as 0.0192 nM; in assay [4] (setting [7]) it was 2.31 nM.

As to `COC(=O)N[C@H](C(=O)N1C[C@H](F)C[C@H]1c1ncc(-c2ccc3c(c2)OC(C2CC2)C2=C3COc3cc(-c4cnc([C@@H]5C[C@@H](F)CN5C(=O)[C@@H](NC(=O)OC)C(C)C)[nH]4)ccc32)[nH]1)C(C)C` (single isomer, unassigned) [Compound 20], the IC50 stood at 0.0866 nM in assay [3] and 1.97 nM in assay [4] (setting [6]).

For the compound `COC(=O)N[C@H](C(=O)N1C[C@H](F)C[C@H]1c1ncc(-c2ccc3c(c2)OC(C2CC2)C2=C3COc3cc(-c4cnc([C@@H]5C[C@@H](F)CN5C(=O)[C@@H](NC(=O)OC)C(C)C)[nH]4)ccc32)[nH]1)C(C)C` (single isomer, unassigned) [Compound 21], the IC50 came to 0.0156 nM in assay [3] and 2.17 nM in assay [4] (setting [6]).

For the compound `COC(=O)N[C@H](C(=O)N1C[C@H](F)C[C@H]1c1ncc(-c2ccc3c(c2)OCc2c-3c(=O)oc3cc(-c4cnc([C@@H]5C[C@@H](F)CN5C(=O)[C@@H](NC(=O)OC)C(C)C)[nH]4)ccc23)[nH]1)C(C)C` [Compound 5], the IC50 worked out at 100 nM in assay [1] (Hepatitis C virus, 72 h); 0.0044 nM in assay [2] (Hepatitis C virus, 72 h); 0.0153 nM in assay [3] (Hepatitis C virus, 72 h); 0.337 nM in assay [4] (setting [7]); 1 nM in assay [5] (Hepatitis C virus, 72 h).

On to `CC(C)(C)OC(=O)N1C[C@H](F)C[C@H]1c1ncc(-c2ccc3c(c2)OCc2c-3c(=O)oc3cc(-c4cnc([C@@H]5C[C@@H](F)CN5C(=O)OC(C)(C)C)[nH]4)ccc23)[nH]1` [Compound 6], for which the IC50 in assay [3] (Hepatitis C virus, 72 h) stood at 975 nM; in assay [4] (setting [7]), 3080 nM.

Regarding `COC(=O)N[C@H](C(=O)N1CCC[C@H]1c1ncc(-c2ccc3c(c2)OC(c2ccccc2)C2=C3COc3cc(-c4cnc([C@@H]5CCCN5C(=O)[C@@H](NC(=O)OC)C(C)C)[nH]4)ccc32)[nH]1)C(C)C` (some centres unmarked) [Compound 7], the IC50 in assay [1] (Hepatitis C virus, 72 h) worked out at 1 nM; in assay [2] (Hepatitis C virus, 72 h), 0.002 nM; in assay [3] (Hepatitis C virus, 72 h), 0.0076 nM; in assay [4] (setting [7]), 4.29 nM; in assay [5] (Hepatitis C virus, 72 h) it was 0.062 nM.

With `COC(=O)N[C@H](C(=O)N1CCC[C@H]1c1ncc(-c2ccc3c(c2)OCC2=C3COc3cc(-c4cnc([C@@H]5C[C@H]6C[C@H]6N5C(=O)[C@@H](NC(=O)OC)C(C)C)[nH]4)ccc32)[nH]1)C(C)C` [Compound 22], the IC50 in assay [1] (Hepatitis C virus, 72 h) amounted to 16 nM; in assay [3] (Hepatitis C virus, 72 h), 0.0023 nM; in assay [4] (setting [7]) it was 2.01 nM; in assay [5] (Hepatitis C virus, 72 h), 2.02 nM.
